Data: PubChem BioAssay AID248 (DTP/NCI, 2004)
Several values for one entry are separate records, joined by “and”; a condition that tells them apart may be missing. Equal entries are not always repeated. Inconclusive results and toxic doses are left out. Cut-off read from the data, not from the text of the source: active = T/C of 150% or more; inactive = T/C below 125%.

System: L1210 leukemia ip in BDF1 mice, survival T/C
Assay: NCI In Vivo Anticancer Drug Screen. Data for tumor model L1210 Leukemia (intraperitoneal) in B6D2F1 (BDF1) mice
Details: endpoint: mean survival time, higher = longer survival
Summary of the method: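 Tumor cells were implanted, animals were treated, and survival was followed. The result divides the treated measurement by the vehicle-control measurement.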

[1] = dose: 50.0 mg/kg/injection, schedule: Q01DX009 (ip), vehicle: saline
[2] = dose: 100.0 mg/kg/injection, schedule: Q04DX003 (ip), vehicle: Klucel (hydroxypropylcellulose) (HPC)
[3] = dose: 200.0 mg/kg/injection, schedule: Q04DX003 (ip), vehicle: Klucel (hydroxypropylcellulose) (HPC)
[4] = dose: 100.0 mg/kg/injection, schedule: Q04DX003 (ip), vehicle: saline with Tween-80
[5] = dose: 200.0 mg/kg/injection, schedule: Q04DX003 (ip), vehicle: saline with Tween-80
[6] = dose: 400.0 mg/kg/injection, schedule: Q04DX003 (ip), vehicle: saline with Tween-80
[7] = dose: 100.0 mg/kg/injection, schedule: Q01DX009 (ip), vehicle: Klucel (hydroxypropylcellulose) (HPC)
[8] = dose: 200.0 mg/kg/injection, schedule: Q01DX009 (ip), vehicle: Klucel (hydroxypropylcellulose) (HPC)
[9] = dose: 400.0 mg/kg/injection, schedule: Q01DX009 (ip), vehicle: Klucel (hydroxypropylcellulose) (HPC)
[10] = dose: 400.0 mg/kg/injection, schedule: Q04DX003 (ip), vehicle: Klucel (hydroxypropylcellulose) (HPC)
[11] = dose: 25.0 mg/kg/injection, schedule: Q01DX009 (ip), vehicle: saline with Tween-80
[12] = dose: 50.0 mg/kg/injection, schedule: Q01DX009 (ip), vehicle: saline with Tween-80
[13] = dose: 100.0 mg/kg/injection, schedule: Q01DX009 (ip), vehicle: saline with Tween-80
[14] = dose: 100.0 mg/kg/injection, schedule: Q01DX001 (ip), vehicle: carboxymethylcellulose (CMC)
[15] = dose: 200.0 mg/kg/injection, schedule: Q01DX001 (ip), vehicle: carboxymethylcellulose (CMC)
[16] = dose: 400.0 mg/kg/injection, schedule: Q01DX001 (ip), vehicle: carboxymethylcellulose (CMC)

Measured: T/C

Cc1ccccc1OCC(O)CO (stereo not drawn)
inactive: dose: 25.0 mg/kg/injection, schedule: Q01DX009 (ip), vehicle: saline 95 % of control | dose: 25.0 mg/kg/injection, schedule: Q04DX003 (ip), vehicle: saline 101 % of control | [1] 93 % of control | dose: 50.0 mg/kg/injection, schedule: Q04DX003 (ip), vehicle: saline 95 % of control | dose: 100.0 mg/kg/injection, schedule: Q01DX009 (ip), vehicle: saline 102 % of control | dose: 100.0 mg/kg/injection, schedule: Q04DX003 (ip), vehicle: saline 95 % of control | dose: 200.0 mg/kg/injection, schedule: Q01DX009 (ip), vehicle: saline 102 % of control | dose: 200.0 mg/kg/injection, schedule: Q04DX003 (ip), vehicle: saline 111 % of control | dose: 400.0 mg/kg/injection, schedule: Q01DX009 (ip), vehicle: saline 98 % of control | dose: 400.0 mg/kg/injection, schedule: Q04DX003 (ip), vehicle: saline 123 % of control

CCN(CC)N=Nc1ccccc1-c1nc(N)c2ccccc2n1
inactive: [2] 95 % of control | [3] 98 % of control

CC(=O)Oc1ccc2c(=O)c(-c3ccccc3)c(C)oc2c1
inactive: dose: 100.0 mg/kg/injection, schedule: Q01DX001 (ip), vehicle: other 108 % of control | [4] 100 % of control | dose: 200.0 mg/kg/injection, schedule: Q01DX001 (ip), vehicle: other 111 % of control | [5] 108 % of control | dose: 400.0 mg/kg/injection, schedule: Q01DX001 (ip), vehicle: other 94 % of control | [6] 105 % of control

CC(=O)Oc1cccc(OC(C)=O)c1OC(C)=O
inactive: [7] 103 % of control | [2] 107 % of control | [8] 100 % of control | [3] 97 % of control | [9] 97 % of control | [10] 100 % of control

CC(C)(C)C(=O)CN1C(=O)c2ccccc2C1=O
inactive: dose: 100.0 mg/kg/injection, schedule: Q01DX001 (ip), vehicle: Klucel (hydroxypropylcellulose) (HPC) 108 % of control | [7] 96 % of control and 97 % of control | dose: 100.0 mg/kg/injection, schedule: Q04DX002 (ip), vehicle: Klucel (hydroxypropylcellulose) (HPC) 101 % of control and 103 % of control | [2] 101 % of control | dose: 200.0 mg/kg/injection, schedule: Q01DX001 (ip), vehicle: Klucel (hydroxypropylcellulose) (HPC) 112 % of control | [8] 96 % of control and 104 % of control | dose: 200.0 mg/kg/injection, schedule: Q04DX002 (ip), vehicle: Klucel (hydroxypropylcellulose) (HPC) 98 % of control and 103 % of control | [3] 95 % of control | dose: 400.0 mg/kg/injection, schedule: Q01DX001 (ip), vehicle: Klucel (hydroxypropylcellulose) (HPC) 118 % of control | [9] 97 % of control and 108 % of control | dose: 400.0 mg/kg/injection, schedule: Q04DX002 (ip), vehicle: Klucel (hydroxypropylcellulose) (HPC) 103 % of control and 109 % of control | [10] 103 % of control

Nc1ncnc2c1c(-c1nn[nH]n1)cn2C1OC(CO)C(O)C1O (stereo not drawn)
inactive: dose: 12.5 mg/kg/injection, schedule: Q01DX005 (ip), vehicle: saline 121 % of control | dose: 12.5 mg/kg/injection, schedule: Q01DX009 (ip), vehicle: saline 122 % of control | dose: 50.0 mg/kg/injection, schedule: Q01DX005 (ip), vehicle: saline 108 % of control | [1] 98 % of control

O=C1NCC(O)CN1
inactive: dose: 29.0 mg/kg/injection, schedule: Q01DX Z (ip), vehicle: methylcellulose (MC) 96 % of control | dose: 45.0 mg/kg/injection, schedule: Q01DX Z (ip), vehicle: methylcellulose (MC) 96 % of control | dose: 67.0 mg/kg/injection, schedule: Q01DX Z (ip), vehicle: methylcellulose (MC) 108 % of control | dose: 100.0 mg/kg/injection, schedule: Q01DX Z (ip), vehicle: methylcellulose (MC) 104 % of control

O=C1NCC2C3CCC(O3)C12 (stereo not drawn)
inactive: dose: 50.0 mg/kg/injection, schedule: Q04DX002 (ip), vehicle: saline 101 % of control | dose: 100.0 mg/kg/injection, schedule: Q04DX002 (ip), vehicle: saline 97 % of control and 103 % of control | dose: 200.0 mg/kg/injection, schedule: Q04DX002 (ip), vehicle: saline 105 % of control | dose: 400.0 mg/kg/injection, schedule: Q04DX002 (ip), vehicle: saline 97 % of control and 92 % of control

COc1ccc(/C=N/NC(=S)Nc2ccccn2)cc1OC
inactive: [11] 104 % of control | [12] 93 % of control | [13] 122 % of control

Clc1nc2nsnc2nc1Cl
inactive: [11] 91 % of control | [12] 110 % of control | [13] 96 % of control | dose: 200.0 mg/kg/injection, schedule: Q01DX009 (ip), vehicle: saline with Tween-80 104 % of control | dose: 400.0 mg/kg/injection, schedule: Q01DX009 (ip), vehicle: saline with Tween-80 94 % of control

Cc1ccc([N+](=O)[O-])cc1NC(=O)Nc1cccc2c(O)cccc12
inactive: [7] 86 % of control | [8] 100 % of control

CC1CC(NC(=S)N(C)C)CC(C)(C)C1 (stereo not drawn)
inactive: dose: 50.0 mg/kg/injection, schedule: Q01DX009 (ip), vehicle: Klucel (hydroxypropylcellulose) (HPC) 92 % of control | [7] 100 % of control | [8] 102 % of control

O=C1OCC(C(=O)c2ccccc2)C1=Nc1ccccc1O (stereo not drawn)
inactive: dose: 50.0 mg/kg/injection, schedule: Q01DX001 (ip), vehicle: carboxymethylcellulose (CMC) 94 % of control | [14] 100 % of control | [15] 100 % of control | [16] 92 % of control

CCC[CH2][Sn]([CH2]CCC)([O][Sn]([CH2]CCC)([CH2]CCC)[S]C#N)[S]C#N
inactive: dose: 6.25 mg/kg/injection, schedule: Q01DX009 (ip), vehicle: Klucel (hydroxypropylcellulose) (HPC) 95 % of control | dose: 12.5 mg/kg/injection, schedule: Q01DX009 (ip), vehicle: Klucel (hydroxypropylcellulose) (HPC) 97 % of control | dose: 25.0 mg/kg/injection, schedule: Q01DX009 (ip), vehicle: Klucel (hydroxypropylcellulose) (HPC) 89 % of control

Brc1ccc[n+](Cc2ccccc2)c1
inactive: dose: 75.0 mg/kg/injection, schedule: Q01DX001 (ip), vehicle: saline 98 % of control

CC(CCC1CCCCC1)c1ccccc1 (stereo not drawn) (tested in a mixture with another compound)
inactive: [4] 93 % of control | [5] 96 % of control | [6] 93 % of control

CC(C)COC(=O)c1ccc(NC(=O)Nc2ccc(F)cc2)cc1
inactive: [14] 99 % of control | dose: 100.0 mg/kg/injection, schedule: Q01DX009 (ip), vehicle: carboxymethylcellulose (CMC) 92 % of control and 97 % of control | dose: 100.0 mg/kg/injection, schedule: Q04DX002 (ip), vehicle: carboxymethylcellulose (CMC) 93 % of control and 103 % of control | dose: 100.0 mg/kg/injection, schedule: Q04DX003 (ip), vehicle: carboxymethylcellulose (CMC) 96 % of control | [15] 87 % of control | dose: 200.0 mg/kg/injection, schedule: Q01DX009 (ip), vehicle: carboxymethylcellulose (CMC) 100 % of control and 90 % of control | dose: 200.0 mg/kg/injection, schedule: Q04DX002 (ip), vehicle: carboxymethylcellulose (CMC) 92 % of control and 91 % of control | dose: 200.0 mg/kg/injection, schedule: Q04DX003 (ip), vehicle: carboxymethylcellulose (CMC) 96 % of control | [16] 96 % of control | dose: 400.0 mg/kg/injection, schedule: Q01DX009 (ip), vehicle: carboxymethylcellulose (CMC) 100 % of control | dose: 400.0 mg/kg/injection, schedule: Q04DX002 (ip), vehicle: carboxymethylcellulose (CMC) 100 % of control and 102 % of control | dose: 400.0 mg/kg/injection, schedule: Q04DX003 (ip), vehicle: carboxymethylcellulose (CMC) 95 % of control

CC1(CCCc2ccc([N+](=O)[O-])cc2)N=C(N)N=C(N)N1c1ccccc1 (stereo not drawn)
inactive: dose: 25.0 mg/kg/injection, schedule: Q04DX003 (ip), vehicle: Klucel (hydroxypropylcellulose) (HPC) 103 % of control | dose: 50.0 mg/kg/injection, schedule: Q04DX003 (ip), vehicle: Klucel (hydroxypropylcellulose) (HPC) 100 % of control | [2] 121 % of control

Cc1cc2ccccc2c2cc3ccccc3cc12
inactive: [7] 104 % of control | dose: 100.0 mg/kg/injection, schedule: Q04DX003 (ip), vehicle: other 111 % of control | [8] 109 % of control | dose: 200.0 mg/kg/injection, schedule: Q04DX003 (ip), vehicle: other 106 % of control | [9] 107 % of control | dose: 400.0 mg/kg/injection, schedule: Q04DX003 (ip), vehicle: other 111 % of control
